Here are results for 9 compounds from ChEMBL document CHEMBL1149012, “Effects of phenolic constituents from the mulberry tree on arachidonate metabolism in rat platelets” (J Nat Prod, 1986).

In experiment [1] the test system is Platelet. The experiment is described as follows: Inhibition of 12-hydroxy-5,8,10,14-eicosatetraenoic acid formation in Wistar King platelets. The class given is functional, cell-based. The note with it: Rattus norvegicus.
Experiment [2] has as its system Platelet. The experiment is described as follows: Inhibition of thromboxane B2 formation in Wistar King platelets. Type of experiment: functional, cell-based. The note with it: Rattus norvegicus.
In experiment [3] the test system is Platelet. The experiment in a line: Inhibition of 12-hydroxy-5,8,10-heptadecatrienoic acid formation in Wistar King platelets. Type of experiment: functional, cell-based. The note with it: Rattus norvegicus.
The subject of experiment [4] is Platelet. The experiment in a line: Stimulation of 12-hydroxy-5,8,10,14-eicosatetraenoic acid formation in Wistar King platelets. Type of experiment: functional, cell-based. The note with it: Rattus norvegicus.
Experiment [5] deals with Platelet. The experiment is described as follows: Stimulation of 12-hydroxy-5,8,10,14-eicosatetraenoic acid formation in Wistar King platelets at 1 mM. The class given is functional, cell-based. Conditions: Rattus norvegicus.
Experiment [6] deals with Platelet. The experiment in a line: Stimulation of 12-hydroxy-5,8,10,14-eicosatetraenoic acid formation in Wistar King platelets at 10 uM. Type of experiment: functional, cell-based. The note with it: Rattus norvegicus.
The test system of experiment [7] is Platelet. The experiment in a line: Inhibition of thromboxane B2 formation in Wistar King platelets at 1 mM. The class given is functional. Conditions: Rattus norvegicus.
Experiment [8] concerns Platelet. The experiment is described as follows: Inhibition of 12-hydroxy-5,8,10,14-eicosatetraenoic acid formation in Wistar King platelets at 1 mM. Type of experiment: functional. Conditions: Rattus norvegicus.
Experiment [9] relates to Platelet. The experiment is described as follows: Inhibition of 12-hydroxy-5,8,10-heptadecatrienoic acid formation in Wistar King platelets at 1 mM. The class given is functional. Conditions: Rattus norvegicus.
Experiment [10] deals with Platelet. The experiment in a line: Inhibition of 12-hydroxy-5,8,10,14-eicosatetraenoic acid formation in Wistar King platelets at 0.1 mM. The class given is functional. Conditions: Rattus norvegicus, values are per cent of control.
For experiment [11], the system named is Platelet. The experiment in a line: Stimulation of 12-hydroxy-5,8,10,14-eicosatetraenoic acid formation in Wistar King platelets at 0.1 mM. The class given is functional, cell-based. The note with it: Rattus norvegicus.

Activity calls are given as the source filed them. The rule behind the calls is not given here.

As to `OC[C@H]1O[C@@H](Oc2cc(O)cc(/C=C/c3ccc(O[C@@H]4O[C@H](CO)[C@@H](O)[C@H](O)[C@H]4O)cc3O)c2)[C@H](O)[C@@H](O)[C@@H]1O`, the outcome in experiment [1], in experiment [2] and in experiment [3] was inactive.
The term IC50 denotes the concentration at which inhibition is half-maximal. The low end stands for greater potency in that assay, the high end for weaker potency in that assay. Consider `CC(C)=CCc1c(-c2ccc(O)cc2O)oc2c([C@H]3C=C(C)C[C@@H](c4ccc(O)cc4O)[C@@H]3C(=O)c3ccc(O)cc3O)c(O)cc(O)c2c1=O` [KUMANON G], for which the outcome in experiment [4], in experiment [5] and in [6] was Active. Besides, the IC50 is 132 µM in experiment [2] and 89.3 µM in experiment [3].
Turning to `CC(C)=CCc1c(O)ccc(C(=O)[C@@H]2[C@@H](c3c(O)cc(O)c4c(=O)c(CC=C(C)C)c(-c5ccc(O)cc5O)oc34)C=C(C)C[C@H]2c2ccc(O)cc2O)c1O` [KUMANON H], the outcome in experiment [4], in [5] and in experiment [6] was Active. Moreover, the 50% inhibitory concentration (IC50) in experiment [2] turned out to be 75.7 µM; in experiment [3] it was 24 µM.
A word on the inhibition: it is the percentage by which the read-out fell short of the control. Low readings indicate little suppression, high ones strong suppression. Turning to `CC(C)=CCc1c(-c2ccc(O)cc2O)oc2c([C@H]3Oc4cc(O)c5c(=O)c(CC=C(C)C)c(-c6ccc(O)cc6O)oc5c4[C@@H]4C=C(C)CC(C)(C)[C@H]34)c(O)cc(O)c2c1=O` [KUMANON M], the inhibition at 1000 µM in experiment [7] came to 87.3%; in experiment [8] it was 68%; in experiment [9] it was 81.5%.
For the compound `CC1=C[C@H]2c3c(O)cc(-c4cc5ccc(O)cc5o4)cc3O[C@@]3(c4ccc(O)cc4O)Oc4cc(O)ccc4[C@H](C1)[C@@H]23` [MULBERROFURAN G], the IC50 in [1] was 89 µM; in experiment [2], 34.7 µM; in [3] it was 10.7 µM.
The residual activity is the signal under treatment as a percentage of the control signal. In the case of `CC1=C[C@H](c2c(O)cc(-c3cc4ccc(O)cc4o3)cc2O)[C@@H](C(=O)c2ccc(O)cc2O)[C@H](c2ccc(O)cc2O)C1` [MULBERROFURAN J], the residual activity at 100 µM in experiment [10] stood at 194%. For the same compound, the result in [11] was Active. The IC50 in [1] is 823 µM; in [2] it was 50.7 µM; in [3] it was 36.3 µM. Further, the inhibition at 1000 µM in experiment [8] amounted to 35.5%.
Regarding `CC12C[C@@H](c3ccc(O)cc3O1)C13OC1(c1ccc(O)cc1O)Oc1cc(-c4cc5ccc(O)cc5o4)cc(O)c1C3C2=O` (stereo not given in full) [MULBERROFURAN Q], the result in experiment [4], in experiment [5] and in experiment [6] was Active. Also, the results for the IC50 in experiment [2] and in [3] were 355 µM and 227 µM, respectively.
`CC(C)=CC[C@]12Oc3cc(O)c([C@H]4C=C(C)C[C@H](c5ccc(O)cc5O)[C@H]4C(=O)c4ccc(O)cc4O)c(O)c3C(=O)[C@@]1(O)Oc1cc(O)ccc12` [SANGGENON C]: the result in [4], in [5] and in experiment [6] was Active. For the same compound, the concentration for half-maximal inhibition (IC50) in experiment [2] worked out at 180 µM; in [3] it was 112 µM.
As to `CC(C)=CCC12Oc3cc(O)ccc3C1(O)Oc1cc(O)c([C@H]3C=C(C)C[C@@H](c4ccc(O)cc4O)[C@@H]3C(=O)c3ccc(O)cc3O)c(O)c1C2=O` (stereo not given in full) [SANGGENON D], the residual activity at 100 µM in experiment [10] came to 256%. The result in experiment [11] was Active. For the same compound, the half-maximal inhibitory concentration (IC50) is 48.3 µM in [2] and 43.3 µM in [3]. For the same compound, the inhibition at 1000 µM in experiment [8] is 51%.
